Measured values taken from the supplement of paper PMC13380429.

Columns and labels:
[1] = test system: A549-ACE2 infected with SARS-CoV-2; test: cell count relative to DMSO; higher = less toxic; conditions: 24 h
Caco-2 [2] = test: cell viability relative to DMSO; higher = less toxic; conditions: 72 h
Calu-3 [3] = test: as above; conditions: 72 h
HepG2 [4] = test: as above; conditions: 72 h
U2OS [5] = test: as above; conditions: 72 h
Vero E6 [6] = test: as above; conditions: 72 h
[7] = test system: A549-ACE2 infected with SARS-CoV-2; test: SARS-CoV-2 infection rate relative to DMSO; higher = more infection; conditions: 24 h
A549-ACE2 [8] = test: phospholipidosis EC50; higher = less potent phospholipidosis inducer
A549-ACE2 [9] = test: drug-induced phospholipidosis relative to tamoxifen; higher = more phospholipidosis
[10] = test system: A549-ACE2 infected with SARS-CoV-2; test: morphology score (similarity to uninfected cells); higher = more like uninfected cells; conditions: 24 h
Caco-2 [11] = test: relative viability EC50 (midpoint between 100% and the lowest measured viability); higher = less toxic; conditions: 72 h
Calu-3 [12] = test: as above; conditions: 72 h
U2OS [13] = test: as above; conditions: 72 h
Vero E6 [14] = test: as above; conditions: 72 h
Caco-2 [15] = test: drug sensitivity score (DSS) for viability; higher = more toxic; extreme values may be limits of the assay; conditions: 72 h
Calu-3 [16] = test: as above; conditions: 72 h
HepG2 [17] = test: as above; conditions: 72 h
U2OS [18] = test: as above; conditions: 72 h
Vero E6 [19] = test: as above; conditions: 72 h
HepG2 [20] = test: relative viability EC50 (midpoint between 100% and the lowest measured viability); higher = less toxic; conditions: 72 h

CC1(N2CCC(n3c([C@@H]4CCCNC4)nc4ccccc43)CC2)CCCCCCC1 [MCOPPB]
Conditions	SARS-CoV-2 infection rate [%]	cell count [%]	cell viability [%]	morphology score	phospholipidosis EC50 [µM]
A549-ACE2 [8], 24 h	–	–	–	–	1.64
A549-ACE2 [8], 48 h	–	–	–	–	3.3
A549-ACE2 [8], 72 h	–	–	–	–	4.88
Caco-2 [2], 1 nM	–	–	111	–	–
Caco-2 [2], 10 nM	–	–	105	–	–
Caco-2 [2], 100 nM	–	–	93.5	–	–
Caco-2 [2], 1000 nM	–	–	100	–	–
Caco-2 [2], 10000 nM	–	–	89.3	–	–
Calu-3 [3], 1 nM	–	–	99.2	–	–
Calu-3 [3], 10 nM	–	–	99.8	–	–
Calu-3 [3], 100 nM	–	–	91.6	–	–
Calu-3 [3], 1000 nM	–	–	99	–	–
Calu-3 [3], 10000 nM	–	–	7.3	–	–
HepG2 [4], 1 nM	–	–	94	–	–
HepG2 [4], 10 nM	–	–	100	–	–
HepG2 [4], 100 nM	–	–	99.5	–	–
HepG2 [4], 1000 nM	–	–	87.5	–	–
HepG2 [4], 10000 nM	–	–	55.1	–	–
U2OS [5], 1 nM	–	–	98.6	–	–
U2OS [5], 10 nM	–	–	104	–	–
U2OS [5], 100 nM	–	–	98.6	–	–
U2OS [5], 1000 nM	–	–	100	–	–
U2OS [5], 10000 nM	–	–	91.4	–	–
Vero E6 [6], 1 nM	–	–	101	–	–
Vero E6 [6], 10 nM	–	–	101	–	–
Vero E6 [6], 100 nM	–	–	106	–	–
Vero E6 [6], 1000 nM	–	–	99	–	–
Vero E6 [6], 10000 nM	–	–	98.9	–	–
[1], 0.3 µM	–	106	–	–	–
[1], 3 µM	–	115	–	–	–
[1], 10 µM	–	119	–	–	–
[1], 30 µM	–	120	–	–	–
[7], 0.3 µM	89	–	–	–	–
[7], 3 µM	23	–	–	–	–
[7], 10 µM	16	–	–	–	–
[7], 30 µM	27	–	–	–	–
[10], 0.3 µM	–	–	–	0.38	–
[10], 3 µM	–	–	–	0.73	–
[10], 10 µM	–	–	–	0.28	–
[10], 30 µM	–	–	–	-0.07	–

drug-induced phospholipidosis [%], A549-ACE2 [9]
Conditions	0.3 µM	0.833333 µM	3.33333 µM	6.66667 µM	10 µM	30 µM
24 h	5.09	34	89.2	113	138	112
48 h	5.47	17.9	70.6	117	145	111
72 h	4.22	12.1	45	98.9	137	141

Conditions	drug sensitivity score	relative viability EC50 [µM]
Caco-2 [11]	–	> 10
Caco-2 [15]	0	–
Calu-3 [12]	–	3.09
Calu-3 [16]	5.3	–
HepG2 [17]	4.2	–
U2OS [13]	–	> 10
U2OS [18]	0	–
Vero E6 [14]	–	> 10
Vero E6 [19]	0	–

CC(C)(C)c1ccc(-c2nc3ccccc3[nH]2)cc1 [ZLN005]
Conditions	SARS-CoV-2 infection rate, [7] [%]	cell count, [1] [%]	cell viability, Caco-2 [2] [%]	cell viability, Calu-3 [3] [%]	cell viability, HepG2 [4] [%]	cell viability, U2OS [5] [%]	cell viability, Vero E6 [6] [%]	morphology score, [10]
1 nM	–	–	91.8	87.7	94.6	101	92.8	–
10 nM	–	–	99.8	94.1	98.2	94.2	98.6	–
100 nM	–	–	97.1	105	96.2	97.7	94.1	–
0.3 µM	99	98	–	–	–	–	–	0.14
1000 nM	–	–	84	88.1	96.6	90.7	92.7	–
3 µM	87	113	–	–	–	–	–	0.37
10 µM	57	115	–	–	–	–	–	0.7
10000 nM	–	–	49.4	49.4	77.4	78.4	81.6	–
30 µM	32	110	–	–	–	–	–	0.77

drug-induced phospholipidosis [%], A549-ACE2 [9]
Conditions	0.3 µM	0.833333 µM	3.33333 µM	6.66667 µM	10 µM	30 µM
24 h	3.54	-4.68	-5.18	-7.34	-8.03	-10.2
48 h	4.21	-3.33	-5.71	-7.4	-10.6	-12.3
72 h	2.86	-4.87	-1.84	-5.31	-5.63	-6.24

Conditions	drug sensitivity score	relative viability EC50 [µM]
Caco-2 [11]	–	1.4
Caco-2 [15]	4.9	–
Calu-3 [12]	–	1.6
Calu-3 [16]	4.6	–
HepG2 [17]	1.3	–
HepG2 [20]	–	> 10
U2OS [13]	–	> 10
U2OS [18]	1.3	–
Vero E6 [14]	–	> 10
Vero E6 [19]	0.6	–

COc1cc(/C=C2\CCC/C(=C\c3ccc(O)c(OC)c3)C2=O)ccc1O [cyclovalone]
Conditions	SARS-CoV-2 infection rate, [7] [%]	cell count, [1] [%]	cell viability, Caco-2 [2] [%]	cell viability, Calu-3 [3] [%]	cell viability, HepG2 [4] [%]	cell viability, U2OS [5] [%]	cell viability, Vero E6 [6] [%]	morphology score, [10]
1 nM	–	–	93	93	88.9	96.1	103	–
10 nM	–	–	102	100	95.2	101	91.9	–
100 nM	–	–	100	105	99	97	99.1	–
0.3 µM	96	99	–	–	–	–	–	0.08
1000 nM	–	–	96.1	98.9	92.8	-0.3	84.1	–
3 µM	103	97	–	–	–	–	–	0.06
10 µM	98	80	–	–	–	–	–	0.05
10000 nM	–	–	101	59.3	90.4	22.4	108	–
30 µM	21	31	–	–	–	–	–	0.46

drug-induced phospholipidosis [%], A549-ACE2 [9]
Conditions	0.3 µM	0.833333 µM	3.33333 µM	6.66667 µM	10 µM	30 µM
24 h	3.68	3.84	17.9	21.4	23.9	23.4
48 h	2.15	1.38	12.4	–	–	–
72 h	2.61	-0.476	7.23	–	–	–

Conditions	drug sensitivity score	relative viability EC50 [µM]
Caco-2 [11]	–	> 10
Caco-2 [15]	0	–
Calu-3 [16]	2.2	–
HepG2 [17]	0	–
HepG2 [20]	–	> 10
U2OS [13]	–	0.293
U2OS [18]	18.4	–
Vero E6 [14]	–	> 10
Vero E6 [19]	0	–
